Target: T1, E. coli TyrRS (Escherichia coli, UniProt P0AGJ9)
T1 construct: gene tyrS; homodimer
T1 sequence (P0AGJ9 2-424): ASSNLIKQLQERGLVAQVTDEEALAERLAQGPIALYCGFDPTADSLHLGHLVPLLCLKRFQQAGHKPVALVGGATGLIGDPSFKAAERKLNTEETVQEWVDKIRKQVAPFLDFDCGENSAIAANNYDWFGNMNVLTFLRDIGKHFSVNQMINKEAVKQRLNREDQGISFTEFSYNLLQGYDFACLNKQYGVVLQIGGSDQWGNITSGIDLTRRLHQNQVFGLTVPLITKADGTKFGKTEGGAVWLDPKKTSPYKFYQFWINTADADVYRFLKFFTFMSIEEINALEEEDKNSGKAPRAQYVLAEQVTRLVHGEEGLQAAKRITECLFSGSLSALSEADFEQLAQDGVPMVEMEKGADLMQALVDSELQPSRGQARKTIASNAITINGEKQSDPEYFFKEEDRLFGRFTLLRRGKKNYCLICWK
Assay: aminoacylation of […]-tRNA transcript
Assay type: biochemical
Details: 1 mM m-Tyr, 50 nM TyrRS, 25 °C; tRNA named tRNA(Tyr) in text, tRNA(Phe) in legend

Question: `NC(Cc1cccc(O)c1)C(=O)O` (racemic) [m-Tyr, D,L-m-Tyr] was tested. Which “aminoacylation of 32P-tRNA transcript” value did it give?
Answer: Aminoacylation of tRNA^Tyr with m-Tyr by E. coli TyrRS was detected in vitro

From paper PMC4066437, “Oxidation of cellular amino acid pools leads to cytotoxic mistranslation of the genetic code” (eLife, 2014)
